PubChem BioAssay (NCI)
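Method: 48-hour compound exposure of cells in 96-well plates, five concentrations, linear interpolation of endpoints. GI50: concentration for 50% inhibition of growth. At the TGI there is no net growth.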

Key:
Experiment in all cases: growth of human tumour cells (NCI), 48 h
SN12C renal = test system: SN12C renal
SK-MEL-5 melanoma = test system: SK-MEL-5 melanoma
MOLT-4 leukemia = test system: MOLT-4 leukemia
HOP-92 NSCLC = test system: HOP-92 NSCLC
SF-295 CNS = test system: SF-295 CNS
BT-549 breast = test system: BT-549 breast
M14 melanoma = test system: M14 melanoma
PC-3 prostate = test system: PC-3 prostate
HCT-116 colon = test system: HCT-116 colon
786-0 renal = test system: 786-0 renal
OVCAR-8 ovarian = test system: OVCAR-8 ovarian
MDA-MB-435 = test system: MDA-MB-435
SF-268 CNS = test system: SF-268 CNS
SNB-75 CNS = test system: SNB-75 CNS
NCI/ADR-RES ovarian = test system: NCI/ADR-RES ovarian
MCF7 breast = test system: MCF7 breast
NCI-H522 lung = test system: NCI-H522 lung
NCI-H23 lung = test system: NCI-H23 lung
HCT-15 colon = test system: HCT-15 colon
HOP-62 NSCLC = test system: HOP-62 NSCLC
RPMI-8226 leukemia = test system: RPMI-8226 leukemia
A549 NSCLC = test system: A549 NSCLC
IGROV1 ovarian = test system: IGROV1 ovarian
RXF 393 renal = test system: RXF 393 renal
CCRF-CEM leukemia = test system: CCRF-CEM leukemia
HT29 colon = test system: HT29 colon
U251 CNS = test system: U251 CNS
SK-MEL-28 melanoma = test system: SK-MEL-28 melanoma
OVCAR-3 ovarian = test system: OVCAR-3 ovarian
OVCAR-4 ovarian = test system: OVCAR-4 ovarian
OVCAR-5 ovarian = test system: OVCAR-5 ovarian
COLO 205 colon = test system: COLO 205 colon
K-562 leukemia = test system: K-562 leukemia
KM12 colon = test system: KM12 colon
MDA-MB-231 breast = test system: MDA-MB-231 breast
NCI-H226 lung = test system: NCI-H226 lung
NCI-H460 lung = test system: NCI-H460 lung
ACHN renal = test system: ACHN renal
UACC-257 melanoma = test system: UACC-257 melanoma
SW-620 colon = test system: SW-620 colon
UACC-62 melanoma = test system: UACC-62 melanoma
LOX IMVI melanoma = test system: LOX IMVI melanoma
TK-10 renal = test system: TK-10 renal
UO-31 renal = test system: UO-31 renal
SNB-19 CNS = test system: SNB-19 CNS
MALME-3M melanoma = test system: MALME-3M melanoma

O=c1c(Cc2ccc3c(c2)OCO3)nnc2sc(-c3cc(F)c(Cl)cc3Cl)nn12
GI50 (SN12C renal): 62.6 µM
TGI (SN12C renal): > 100 µM
GI50 (SK-MEL-5 melanoma): 19.3 µM
TGI (SK-MEL-5 melanoma): 50.7 µM
GI50 (MOLT-4 leukemia): 36 µM
TGI (MOLT-4 leukemia): > 100 µM
GI50 (HOP-92 NSCLC): 23 µM
TGI (HOP-92 NSCLC): 88.4 µM
GI50 (SF-295 CNS): 72.5 µM
TGI (SF-295 CNS): > 100 µM
GI50 (BT-549 breast): 27.4 µM
TGI (BT-549 breast): 56 µM
GI50 (M14 melanoma): > 100 µM
TGI (M14 melanoma): > 100 µM
GI50 (PC-3 prostate): 35.4 µM
TGI (PC-3 prostate): > 100 µM
GI50 (HCT-116 colon): 23.5 µM
TGI (HCT-116 colon): > 100 µM
GI50 (786-0 renal): 17.2 µM
TGI (786-0 renal): > 100 µM
GI50 (OVCAR-8 ovarian): 36.9 µM
TGI (OVCAR-8 ovarian): > 100 µM
GI50 (MDA-MB-435): 52.9 µM
TGI (MDA-MB-435): > 100 µM
GI50 (SF-268 CNS): 41.7 µM
TGI (SF-268 CNS): > 100 µM
GI50 (SNB-75 CNS): 28.5 µM
TGI (SNB-75 CNS): > 100 µM
GI50 (NCI/ADR-RES ovarian): 63.7 µM
TGI (NCI/ADR-RES ovarian): > 100 µM
GI50 (MCF7 breast): 38.9 µM
TGI (MCF7 breast): > 100 µM
GI50 (NCI-H522 lung): 33.4 µM
TGI (NCI-H522 lung): > 100 µM
GI50 (NCI-H23 lung): 82.5 µM
TGI (NCI-H23 lung): > 100 µM
GI50 (HCT-15 colon): 70.6 µM
TGI (HCT-15 colon): > 100 µM
GI50 (HOP-62 NSCLC): 18.1 µM
TGI (HOP-62 NSCLC): 64.7 µM
GI50 (RPMI-8226 leukemia): 30.6 µM
TGI (RPMI-8226 leukemia): > 100 µM
GI50 (A549 NSCLC): 41.8 µM
TGI (A549 NSCLC): > 100 µM
GI50 (IGROV1 ovarian): 32.3 µM
TGI (IGROV1 ovarian): > 100 µM
GI50 (RXF 393 renal): 42.7 µM
TGI (RXF 393 renal): > 100 µM
GI50 (CCRF-CEM leukemia): 33.9 µM
TGI (CCRF-CEM leukemia): > 100 µM
GI50 (HT29 colon): 35.2 µM
TGI (HT29 colon): > 100 µM
GI50 (U251 CNS): 35.7 µM
TGI (U251 CNS): > 100 µM
GI50 (SK-MEL-28 melanoma): 32.2 µM
TGI (SK-MEL-28 melanoma): > 100 µM
GI50 (OVCAR-3 ovarian): 38 µM
TGI (OVCAR-3 ovarian): > 100 µM
GI50 (OVCAR-4 ovarian): 59.2 µM
TGI (OVCAR-4 ovarian): > 100 µM
GI50 (OVCAR-5 ovarian): 46.6 µM
TGI (OVCAR-5 ovarian): > 100 µM
GI50 (COLO 205 colon): 22.6 µM
TGI (COLO 205 colon): 59.2 µM
GI50 (K-562 leukemia): 42.8 µM
TGI (K-562 leukemia): > 100 µM
GI50 (KM12 colon): 35.6 µM
TGI (KM12 colon): > 100 µM
GI50 (MDA-MB-231 breast): 44.9 µM
TGI (MDA-MB-231 breast): > 100 µM
GI50 (NCI-H226 lung): 85.6 µM
TGI (NCI-H226 lung): > 100 µM
GI50 (NCI-H460 lung): 50.8 µM
TGI (NCI-H460 lung): > 100 µM
GI50 (ACHN renal): 53.8 µM
TGI (ACHN renal): > 100 µM
GI50 (UACC-257 melanoma): 62.5 µM
TGI (UACC-257 melanoma): > 100 µM
GI50 (SW-620 colon): 19.4 µM
TGI (SW-620 colon): 49.1 µM
GI50 (UACC-62 melanoma): 75.8 µM
TGI (UACC-62 melanoma): > 100 µM
GI50 (LOX IMVI melanoma): 44.4 µM
TGI (LOX IMVI melanoma): > 100 µM
GI50 (TK-10 renal): 22.6 µM
TGI (TK-10 renal): 65 µM
GI50 (UO-31 renal): 50.2 µM
TGI (UO-31 renal): > 100 µM
GI50 (SNB-19 CNS): 34.3 µM
TGI (SNB-19 CNS): > 100 µM
GI50 (MALME-3M melanoma): 24.7 µM
TGI (MALME-3M melanoma): 85.3 µM
